From patent US9255128B2, “Nucleic acid for determining actin structures in living cells” (Max-Planck-Gesellschaft zur Forderung der Wissenschaften …, priority 2007, dated 2016) come the findings set out here.

What is called Kd is the concentration at which binding is half-saturated. A lower Kd goes with higher affinity.

Data set [1] deals with non-muscle actin. Kind of data set: F-actin co-sedimentation assay, non-muscle actin. Format: binding. The protocol:
Muscle actin, non-muscle actin, α-actinin and pyrene actin were purchased from Cytoskeleton, Inc. Actin was diluted to working concentrations in G buffer (2 mM Tris HCl, pH 8.0, 0.2 mM ATP, 0.1 mM CaCl2, 0.5 mM DTT).
Polymerization of actin was induced by addition of 0.1 volume 10×KMEI buffer (50 mM KCl, 1 mM MgCl2, 1 mM EGTA, 10 mM imidazole HCl, pH 7.0) and incubation for >1 h at room temperature (RT). […] The supernatant was removed and the pellet resuspended in 100 μl of 1×KMEI buffer. The amount of peptide was measured in a Cary Eclipse Fluorescence Spectrophotometer with excitation/emission set for FITC at 495 nm/520 nm. The bound/total ratio was calculated as the signal from the pellet divided by the total signal. The Kd was obtained by fitting to a hyperbolic curve.

For data set [2], the system named is F-actin in MDCK cells. The experiment in a line: Double staining of PFA fixed MDCK cells with Cy3-conjugated phalloidin. Conditions: TIRF microscopy. Format: cell-based, canine. An excerpt:
(§1) TIRE images were captured on an iMic-stand from Till photonics with an 1.45 NA 100× objective from Olympus. A 300 mW Argon laser and a 20 mW DPSS 561 nm laser were selected through an AOTF. A 2-axis scan head (Yanus II) was used to digitally adjust the TIRE angle. Images were collected with a cooled Imago QE CCD camera. Acquisition was controlled by the TILLvisION software package. Confocal images were collected on a standard Leica SP2 setup. Epifluorescence images were collected on a Zeiss axiovert 200M stand equipped with a climate control chamber from EMBL.

The nature of data set [3]: Solubility of peptide in PBS. In kind it is physicochemical.
Data set [4] deals with MDCK and mouse embryonic fibroblasts. Kind of data set: Cytotoxicity, morphology and growth of transfected cells. Format: cell-based. Conditions: transiently and stably transfected cells. The protocol:
(§2) Mouse primary dendritic cells were generated from flushed bone marrow suspension as described previously^30. At day 8-10 cells were nucleofected using the primary mouse T cell kit and the Amaxa nucleoporator according to the manufacturers recommendations and immediately after transfection 200 ng/ml LPS were added over night and cells were subsequently sorted into GFP positive and negative fractions by using fluorescent activated cell sorting. MDCK cells and mouse embryonic Fibroblasts were grown according to standard procedures and transfected using lipofectamine.

Data set [5] deals with primary rat hippocampal neurons. The experiment in a line: Neuronal polarization of transfected hippocampal neurons. Format: cell-based. The settings on record: mock transfected cells 69±9%. The protocol:
Primary hippocampal neurons were isolated from rat embryos as previously described. Briefly, hippocampi derived from E18 rats were dissected, trypsinized, and dissociated. Directly after dissociation, 5×10^5 hippocampal neurons were transfected by the Amaxa nucleofector system using 3 μg of highly purified plasmid DNA of pEGFP-Lifeact, pEGFP-actin or pEGFP-N2. The neurons were then immediately plated onto poly-L-lysine-coated glass coverslips in 6 cm petri dishes containing minimal essential medium (MEM) and 10% heat-inactivated horse serum. The cells were kept in 5% CO2 at 36.5° C. 6-12 hrs after plating the glass coverslips were then transferred into 6 cm petri dishes containing astrocytes in MEM and N2 supplements and kept in culture for 2DIV.
Neurons were categorized into three stages: neurons with a single axon, multiple axons or no axon. A neurite length >35 μm was used as threshold to define the axon. Developmental stages were observed by live cell microscopy as described.

For data set [6], the system named is mouse dendritic cells. The experiment in a line: Chemotactic dendritic cell migration in 3-dimensional collagen matrix. In kind it is cell-based. The settings on record: CCL19 gradient. The protocol:
as §2
PureCol™ gels containing mature dendritic cells were cast as described previously. Gels were overlayed with 50 μl of 0.6 μg/ml CCL19 (R&D Systems) in RPMI, 10% FCS and imaged on an inverted Axiovert 40 (Zeiss) microscopes, equipped with custom built climate chambers (5% CO2, 37° C., humidified). Under agarose dendritic cell migration was performed as described^31. Briefly, dendritic cells were added into wells punched into an agarose layer. Recombinant CCL19 was added into the adjacent well and, following the chemokine gradient, the cells entered the space between agarose and coverslip. Chemotaxing cells were subsequently imaged with TIRF microscopy.

The subject of data set [7] is mouse embryonic fibroblasts. The experiment in a line: Lamellipodial retrograde actin flow in fibroblasts. Format: cell-based. Conditions: transfected fibroblasts; indistinguishable from untransfected cells.
Description: as §1
All image processing steps were performed in Metamorph (Molecular Devices). For visualization purposes sequences were routinely processed by sequential application of a local background subtraction filter and a 3×3 gauss low pass filter. Color overlays and kymographs were created with the respective functions in Metamorph.
Mouse primary dendritic cells were generated from flushed bone marrow suspension as described previously^30. At day 8-10 cells were nucleofected using the primary mouse T cell kit and the Amaxa nucleoporator according to the manufacturers recommendations and immediately after transfection 200 ng/ml LPS were added over night and cells were subsequently sorted into GFP positive and negative fractions by using fluorescent activated cell sorting. […]

In data set [1], `CC[C@H](C)[C@H](NC(=O)[C@H](CC(C)C)NC(=O)[C@H](CC(=O)O)NC(=O)[C@H](C)NC(=O)[C@@H](NC(=O)CNC(=O)[C@H](CCSC)NC(=S)Nc1ccc2c(c1)C(=O)OC21c2ccc(O)cc2Oc2cc(O)ccc21)C(C)C)C(=O)N[C@@H](CCCCN)C(=O)N[C@@H](CCCCN)C(=O)N[C@@H](Cc1ccccc1)C(=O)N[C@@H](CCC(=O)O)C(=O)N[C@@H](CO)C(=O)N[C@H](C(=O)N[C@@H](CO)C(=O)N[C@@H](CCCCN)C(=O)N[C@@H](CCC(=O)O)C(=O)N[C@@H](CCC(=O)O)C(=O)O)[C@@H](C)CC` [F-Lifeact] displayed a Kd of 5.4 ± 2.6 µM. In data set [2], the “overlap with phalloidin staining” value is listed as “nearly complete overlap”.
In the case of `CC[C@H](C)[C@H](NC(=O)[C@H](CC(C)C)NC(=O)[C@H](CC(=O)O)NC(=O)[C@H](C)NC(=O)[C@@H](NC(=O)CNC(=O)[C@@H](N)CCSC)C(C)C)C(=O)N[C@@H](CCCCN)C(=O)N[C@@H](CCCCN)C(=O)N[C@@H](Cc1ccccc1)C(=O)N[C@@H](CCC(=O)O)C(=O)N[C@@H](CO)C(=O)N[C@H](C(=O)N[C@@H](CO)C(=O)N[C@@H](CCCCN)C(=O)N[C@@H](CCC(=O)O)C(=O)N[C@@H](CCC(=O)O)C(=O)O)[C@@H](C)CC` [Lifeact], the “solubility in PBS” value in data set [3] is listed as “not soluble in PBS”.
Regarding “Lifeact-G: Lifeact-GFP fusion expressed from pEGFP-N1 backbone under the CMV promoter”, in data set [4], the signs of cytotoxicity entry was “no signs of cytotoxicity”. Moreover, the “cells formed one axon” value in data set [5] came out at 60.1±0.2%. Further, the “effect on speed of chemotactic dendritic cell migration” value in data set [6] was “no effect”. Besides, the “speed of retrograde flow in lamellipodia” value in data set [7] turned out to be 4 μm/min.
